{
  "source": "patent US20110269825A1",
  "about": "“Modified Thromboxane A2 Receptor Promoter Sequence” (priority 2008, published 2011)",
  "format_in_all_cases": "cell-based, human",
  "key": {"[1]": {"test_system": "Sp1", "test": "Immunoblot analysis of Sp1 expression in HEL cells", "conditions": "PMA 100 nM over 48 h", "protocol": "The expression of WT1, Sp1, Egr1, NF-E2, GATA-1 and Ets-1 proteins in HEL cells was confirmed by western blot analysis. Briefly, whole cell protein was resolved by SDS-PAGE (10% acrylamide gels) and transferred to polyvinylidene difluoride (PVDF) membrane according to standard methodology. Membranes were screened using anti-WT1, anti-NF-E2, anti-Sp1, anti-Egr1, anti-GATA-1 or anti-Ets-1 sera in 5% non fat dried milk in 1×TBS (0.01 M Tris/HCl, 0.1 M NaCl) for 2 h at room temperature followed by washing and screening using goat anti-rabbit horseradish peroxidase (sc-2204) followed by chemiluminescence detection, as described by the supplier (Roche Applied Science). For PMA studies, HEL cells were pre-incubated for the indicated amount of time with 100 nM PMA, with 10 μM PD98059, with 100 nM PMA plus 10 μM PD98059 or, as a control, with vehicle [0.1% (v/v) DMSO]. Whole cell protein (60 μg per lane) was resolved by SDS-PAGE (10% acrylamide gels) and transferred to polyvinylidene difluoride (PVDF) membrane according to standard methodology. […] Cells were harvested 48 hr post-transfection and aliquots ([…]) were analysed by SDS-PAGE/western blot analysis. As a positive control for hTF expression, […] of a commercial control Tissue-Factor Biomass was also analysed. […]"}, "[2]": {"test_system": "WT1", "test": "Confocal microscopy of WT1 localization in PMA-treated HEL cells", "conditions": "PMA 100 nM, at 5 h and 8 h", "protocol": "HEL 92.1.7 cells were seeded at ˜1×10^5 cells/ml in 2 ml normal growth media (RPMI 1640, 10% FBS) in 6-well plates containing Poly-L-lysine coated coverslips. Cells were grown at 37° C. for 24 h prior to incubating cells with 100 nM PMA for 0, 1, 5, 8, 16 and 24 h. Thereafter, cells were fixed in 3.4% paraformaldehyde and permeabilized with 0.2% Triton X-100 for 10 min on ice, after which cells were immunolabelled with anti-WT1 (1:1000 of 2 μg/μl stock) and AlexaFluor488 conjugated anti-rabbit, followed by counterstaining with DAPI (1 μg/ml in H2O). Images were obtained using Carl Zeiss Lazer Scanning System LSM510 and Zeiss LSM Imaging software for acquiring multi-channel images with filters appropriate for enhanced DAPI & AlexaFluor488."}, "[3]": {"test_system": "Prm1-directed luciferase expression", "test": "Effect of PMA, PD98059 or Vitamin D3 on Prm1-directed luciferase expression in HEL cells", "protocol": "HEL and EA.hy 926 cells were co-transfected with the various pGL3Basic-recombinant plasmids (2 mg), encoding firefly luciferase, along with pRL-TK (200 ng), encoding renilla luciferase, using DMRIE-C® transfection reagent. HEK293, WI-38, and 1° hAoSMCs were co-transfected with the pGL3Basic-recombinant plasmids (2 mg), along with pRL-TK (200 ng), using Effectene transfection reagent. In all cases, cells co-transfected with pRL-TK (200 ng) in the presence of either the pGL3Control vector (firefly luciferase gene under the control of the SV40 promoter; 2 mg) or the promoter-less pGL3Basic empty vector (2 mg), which served as positive and negative controls, respectively. […] Relative firefly to renilla luciferase activity (arbitrary units) was calculated as a ratio and was expressed in relative luciferase units (RLU). To investigate the effect of over-expression of exon 5 (+ or −) or KTS (+ or −) isoforms of WT1 on Prm1-directed gene expression, HEL cells were co-transfected with either pGL3b:Prm1 or pGL3b:Prm1D (1.5 μg) plus 200 ng of pRL-TK along with either pcDNA3:WT1 (+/+), pcDNA3:WT1 (+/−), pcDNA3:WT1 (−/+), pcDNA3:WT1 (−/−) (0.5 μg), or as a control, pcDNA3 (0.5 μg). […] The plasmid pCMV5-NAB1, containing the entire coding sequence for NAB1, was generously donated by Dr. Gerald Thiel, University of Saarland Medical Center, Homburg, Germany, and has been described previously (Thiel et al., 2000). To investigate the effect of over-expression of NAB1 on the PMA-mediated induction of Prm1-directed gene expression, HEL cells were transiently co-transfected with pGL3b:Prm1 (2 μg) plus pRL-TK (200 ng) along with either pCMV5 (control) or pCMV:NAB1 (1 μg)."}, "[4]": {"test_system": "Egr1", "test": "Immunoblot analysis of Egr1 expression in HEL cells", "conditions": "PMA 100 nM, 0-48 h", "method": "The expression of WT1, Sp1, Egr1, NF-E2, GATA-1 and Ets-1 proteins in HEL cells was confirmed by western blot analysis. Briefly, whole cell protein was resolved by SDS-PAGE (10% acrylamide gels) and transferred to polyvinylidene difluoride (PVDF) membrane according to standard methodology. […] For PMA studies, HEL cells were pre-incubated for the indicated amount of time with 100 nM PMA, with 10 μM PD98059, with 100 nM PMA plus 10 μM PD98059 or, as a control, with vehicle [0.1% (v/v) DMSO]. Whole cell protein (60 μg per lane) was resolved by SDS-PAGE (10% acrylamide gels) and transferred to polyvinylidene difluoride (PVDF) membrane according to standard methodology."}, "[5]": {"test_system": "TPα mRNA", "test": "RT-PCR and Southern blot analysis of TPα mRNA expression in HEL cells", "conditions": "PMA 100 nM, 2 to 48 h", "protocol": "Total RNA was isolated from HEL 92.1.7 cells (5×10^6 approximately) using TRIzol reagent (Invitrogen Life Technologies). RT-PCR was carried out with DNase 1-treated total RNA using oligonucleotide primers to specifically amplify TPα and glyceraldehyde-3-phosphate dehydrogenase (GAPDH) mRNA sequences, as previously described (Miggin et al., 1998). The following primers were used: […]\nFollowing agarose gel electrophoresis, PCR products were transferred to Biodyne® B positively-charged nylon membrane (PaII) using standard methodology (Sambrook et al., 1989). Southern blot analysis of the RT-PCR products was carried out using oligonucleotide probes (5′ end-labelled with biotin) specific for TPα (Kin 583: 5′[Btn][…] GAAG3′, SEQ ID NO:80) and GAPDH (Kin 584: 5′[Btn][…]3′, SEQ ID NO:81] mRNA sequences and detection was carried out using the Detector™ HRP Chemiluminescent Blotting Kit (KPL), as described by the manufacturer."}},
  "note": "Where “and” joins values, the source holds several entries; their conditions need not be identical. Equal values may be shown once.",
  "data": [
    {"smiles": "CCCCCCCCCCCCCC(=O)O[C@@H]1[C@@H](C)[C@@]2(O)[C@@H](C=C(CO)C[C@]3(O)C(=O)C(C)=C[C@@H]23)[C@@H]2C(C)(C)[C@]12OC(C)=O", "note": "[PMA, phorbol 12-myristate 13-acetate]", "values": [
      {"measurement": "Sp1 protein expression", "setting": "[1]", "value": "did not result in appreciable changes in the expression of Sp1"},
      {"measurement": "Intracellular localization of WT1", "setting": "[2]", "value": "redistribution of WT1 to the cytosolic fraction"},
      {"measurement": "Time of incubation to significantly increased Prm1-directed luciferase activity", "setting": "[3]; PMA 100 nM, 0-48 h", "value": "≤ 4", "unit": "h"},
      {"measurement": "Increase in Prm1-directed luciferase expression", "setting": "[3]; PMA 100 nM, 16 h, vs vehicle", "value": "4 fold and 4.3 fold"},
      {"measurement": "Effect on luciferase expression directed by the Prm1K sub-fragment", "setting": "[3]; PMA alone 100 nM, 16 h", "value": "neither PMA alone (p=0.4721) nor PMA plus PD98059 (p=0.2693) had any significant effect"},
      {"measurement": "Egr1 protein expression", "setting": "[4]", "value": "significant increase in Egr1 expression from 1 to 16 h"},
      {"measurement": "TPα mRNA expression", "setting": "[5]", "value": "time-dependent, sustained increase in TPα mRNA expression"}
    ]}
  ]
}
